The text below walks through data of PMC7764985 (2020).

Test [1] concerns FB1_39t3 (DNA, aptamer) ATACCAGCTTATTCAATTAATCGCATTACCTTATACCAGCTTATTCAATTACGTCTGCACATACCAGCTTATTCAATT
In words: microscale thermophoresis. Conditions: 100 mM NaCl, 2 mM MgCl2, 5 mM KCl, 1 mM CaCl2; 20 mM Tris, pH 7.6, 25 °C; 5 nM aptamer. In general terms: In MST a laser heats a spot of the sample, and binding alters the fluorescence response.

For test [2], the system named is FB1_10 (DNA, aptamer) AGCAGCACAGAGGTCAGATGCGATCTGGATATTATTTTTGATACCCCTTTGGGGAGACATCCTATGCGTGCTACCGTGAA
In words: magnetic beads assay, fluorescence. The conditions noted are these: 100 mM NaCl, 2 mM MgCl2, 5 mM KCl, 1 mM CaCl2; immobilised compound; 20 mM Tris-HCl, 0.02% Tween 20, pH 7.4, room temperature; aptamer up to 2000 nM.

Test [3] has the same test system. In words: microscale thermophoresis. The conditions noted are these: 100 mM NaCl, 2 mM MgCl2, 5 mM KCl, 1 mM CaCl2; 20 mM Tris-HCl, 0.02% Tween 20, pH 7.4, 25 °C; 5 nM aptamer.
The test system of test [4] is FB1_39t3 (DNA, aptamer) ATACCAGCTTATTCAATTAATCGCATTACCTTATACCAGCTTATTCAATTACGTCTGCACATACCAGCTTATTCAATT
In words: magnetic beads assay, fluorescence. The conditions noted are these: 100 mM NaCl, 2 mM MgCl2, 5 mM KCl, 1 mM CaCl2; immobilised compound; 20 mM Tris, pH 7.6, room temperature; aptamer up to 2000 nM.

The test system of test [5] is FB1_39 (DNA, aptamer) ATACCAGCTTATTCAATTAATCGCATTACCTTATACCAGCTTATTCAATTACGTCTGCACATACCAGCTTATTCAATTAGATAGTAAGTGCAATCT
In words: microscale thermophoresis. The conditions noted are these: 100 mM NaCl, 2 mM MgCl2, 5 mM KCl, 1 mM CaCl2; 20 mM Tris, pH 7.6, 25 °C; 5 nM aptamer.

The test system is the same in test [6]. In words: magnetic beads assay, fluorescence. The conditions noted are these: 100 mM NaCl, 2 mM MgCl2, 5 mM KCl, 1 mM CaCl2; immobilised compound; 20 mM Tris, pH 7.6, room temperature; aptamer 0.5-100 nM.

For orientation: KD means the free concentration of one partner at which half of the binding sites on the other are occupied at equilibrium, for simple one-to-one binding.

With `CCCC[C@@H](C)[C@@H](OC(=O)C[C@@H](CC(=O)O)C(=O)O)[C@H](C[C@@H](C)C[C@H](O)CCCC[C@@H](O)C[C@H](O)[C@H](C)N)OC(=O)C[C@@H](CC(=O)O)C(=O)O`, the dissociation constant (KD) in test [1] is 2200 ± 1100 nM; in test [3], 162 ± 137 nM; in test [5] it was 31 ± 22 nM; in test [6], 1.53 ± 0.67 nM. In addition, the binding entry in test [2] and in test [4] was “no” throughout.
